Test results from the CheMixHub viscosity set.
± gives the uncertainty stated by the source.

Experiment: xn = mol fraction of the nth substance listed

c1ccc2c(c1)CCCC2 + CCCCCCCCCC
viscosity (293.15 K, 100 kPa, x1 = 0.0986): 0.954 ± 0.02 mPa·s | viscosity (293.15 K, 100 kPa, x1 = 0.2025): 1.008 ± 0.021 mPa·s | viscosity (293.15 K, 100 kPa, x1 = 0.2995): 1.065 ± 0.023 mPa·s | viscosity (293.15 K, 100 kPa, x1 = 0.3994): 1.133 ± 0.024 mPa·s | viscosity (293.15 K, 100 kPa, x1 = 0.5005): 1.221 ± 0.026 mPa·s | viscosity (293.15 K, 100 kPa, x1 = 0.5989): 1.329 ± 0.028 mPa·s | viscosity (293.15 K, 100 kPa, x1 = 0.6999): 1.468 ± 0.031 mPa·s | viscosity (293.15 K, 100 kPa, x1 = 0.7987): 1.644 ± 0.035 mPa·s | viscosity (293.15 K, 100 kPa, x1 = 0.9002): 1.878 ± 0.04 mPa·s | viscosity (293.15 K, 101 kPa, x2 = 0.1001): 1.873 ± 0.014 mPa·s | viscosity (293.15 K, 101 kPa, x2 = 0.2044): 1.629 ± 0.012 mPa·s | viscosity (293.15 K, 101 kPa, x2 = 0.2961): 1.471 ± 0.011 mPa·s | viscosity (293.15 K, 101 kPa, x2 = 0.3964): 1.345 ± 0.011 mPa·s | viscosity (293.15 K, 101 kPa, x2 = 0.4994): 1.226 ± 0.01 mPa·s | viscosity (293.15 K, 101 kPa, x2 = 0.6017): 1.143 ± 0.009 mPa·s | viscosity (293.15 K, 101 kPa, x2 = 0.6964): 1.071 ± 0.009 mPa·s | viscosity (293.15 K, 101 kPa, x2 = 0.7971): 1.015 ± 0.009 mPa·s | viscosity (293.15 K, 101 kPa, x2 = 0.8894): 0.968 ± 0.008 mPa·s | viscosity (298.15 K, 100 kPa, x1 = 0.0986): 0.886 ± 0.019 mPa·s | viscosity (298.15 K, 100 kPa, x1 = 0.2025): 0.936 ± 0.02 mPa·s | viscosity (298.15 K, 100 kPa, x1 = 0.2995): 0.987 ± 0.021 mPa·s | viscosity (298.15 K, 100 kPa, x1 = 0.3994): 1.043 ± 0.022 mPa·s | viscosity (298.15 K, 100 kPa, x1 = 0.5005): 1.127 ± 0.024 mPa·s | viscosity (298.15 K, 100 kPa, x1 = 0.5989): 1.224 ± 0.026 mPa·s | viscosity (298.15 K, 100 kPa, x1 = 0.6999): 1.347 ± 0.029 mPa·s | viscosity (298.15 K, 100 kPa, x1 = 0.7987): 1.495 ± 0.032 mPa·s | viscosity (298.15 K, 100 kPa, x1 = 0.9002): 1.708 ± 0.036 mPa·s | viscosity (298.15 K, 101 kPa, x2 = 0.1001): 1.703 ± 0.013 mPa·s | viscosity (298.15 K, 101 kPa, x2 = 0.2044): 1.486 ± 0.011 mPa·s | viscosity (298.15 K, 101 kPa, x2 = 0.2961): 1.349 ± 0.011 mPa·s | viscosity (298.15 K, 101 kPa, x2 = 0.3964): 1.238 ± 0.01 mPa·s | viscosity (298.15 K, 101 kPa, x2 = 0.4994): 1.134 ± 0.009 mPa·s | viscosity (298.15 K, 101 kPa, x2 = 0.6017): 1.06 ± 0.009 mPa·s | viscosity (298.15 K, 101 kPa, x2 = 0.6964): 0.993 ± 0.009 mPa·s | viscosity (298.15 K, 101 kPa, x2 = 0.7971): 0.942 ± 0.008 mPa·s | viscosity (298.15 K, 101 kPa, x2 = 0.8894): 0.9 ± 0.008 mPa·s | viscosity (303.15 K, 100 kPa, x1 = 0.0986): 0.827 ± 0.018 mPa·s | viscosity (303.15 K, 100 kPa, x1 = 0.2025): 0.871 ± 0.019 mPa·s | viscosity (303.15 K, 100 kPa, x1 = 0.2995): 0.919 ± 0.02 mPa·s | viscosity (303.15 K, 100 kPa, x1 = 0.3994): 0.973 ± 0.021 mPa·s | viscosity (303.15 K, 100 kPa, x1 = 0.5005): 1.045 ± 0.022 mPa·s | viscosity (303.15 K, 100 kPa, x1 = 0.5989): 1.132 ± 0.024 mPa·s | viscosity (303.15 K, 100 kPa, x1 = 0.6999): 1.243 ± 0.026 mPa·s | viscosity (303.15 K, 100 kPa, x1 = 0.7987): 1.382 ± 0.029 mPa·s | viscosity (303.15 K, 100 kPa, x1 = 0.9002): 1.564 ± 0.033 mPa·s | viscosity (303.15 K, 101 kPa, x2 = 0.1001): 1.56 ± 0.012 mPa·s | viscosity (303.15 K, 101 kPa, x2 = 0.2044): 1.368 ± 0.011 mPa·s | viscosity (303.15 K, 101 kPa, x2 = 0.2961): 1.245 ± 0.01 mPa·s | viscosity (303.15 K, 101 kPa, x2 = 0.3964): 1.148 ± 0.009 mPa·s | viscosity (303.15 K, 101 kPa, x2 = 0.4994): 1.053 ± 0.009 mPa·s | viscosity (303.15 K, 101 kPa, x2 = 0.6017): 0.986 ± 0.009 mPa·s | viscosity (303.15 K, 101 kPa, x2 = 0.6964): 0.925 ± 0.008 mPa·s | viscosity (303.15 K, 101 kPa, x2 = 0.7971): 0.878 ± 0.008 mPa·s | viscosity (303.15 K, 101 kPa, x2 = 0.8894): 0.838 ± 0.008 mPa·s | viscosity (308.15 K, 100 kPa, x1 = 0.0986): 0.774 ± 0.016 mPa·s | viscosity (308.15 K, 100 kPa, x1 = 0.2025): 0.814 ± 0.017 mPa·s | viscosity (308.15 K, 100 kPa, x1 = 0.2995): 0.859 ± 0.018 mPa·s | viscosity (308.15 K, 100 kPa, x1 = 0.3994): 0.908 ± 0.019 mPa·s | viscosity (308.15 K, 100 kPa, x1 = 0.5005): 0.973 ± 0.021 mPa·s | viscosity (308.15 K, 100 kPa, x1 = 0.5989): 1.047 ± 0.022 mPa·s | viscosity (308.15 K, 100 kPa, x1 = 0.6999): 1.151 ± 0.024 mPa·s | viscosity (308.15 K, 100 kPa, x1 = 0.7987): 1.276 ± 0.027 mPa·s | viscosity (308.15 K, 100 kPa, x1 = 0.9002): 1.437 ± 0.031 mPa·s | viscosity (313.15 K, 100 kPa, x1 = 0.0986): 0.727 ± 0.015 mPa·s | viscosity (313.15 K, 100 kPa, x1 = 0.2025): 0.763 ± 0.016 mPa·s | viscosity (313.15 K, 100 kPa, x1 = 0.2995): 0.805 ± 0.017 mPa·s | viscosity (313.15 K, 100 kPa, x1 = 0.3994): 0.85 ± 0.018 mPa·s | viscosity (313.15 K, 100 kPa, x1 = 0.5005): 0.909 ± 0.019 mPa·s | viscosity (313.15 K, 100 kPa, x1 = 0.5989): 0.977 ± 0.021 mPa·s | viscosity (313.15 K, 100 kPa, x1 = 0.6999): 1.07 ± 0.023 mPa·s | viscosity (313.15 K, 100 kPa, x1 = 0.7987): 1.182 ± 0.025 mPa·s | viscosity (313.15 K, 100 kPa, x1 = 0.9002): 1.326 ± 0.028 mPa·s | viscosity (313.15 K, 101 kPa, x2 = 0.1001): 1.328 ± 0.01 mPa·s | viscosity (313.15 K, 101 kPa, x2 = 0.2044): 1.175 ± 0.01 mPa·s | viscosity (313.15 K, 101 kPa, x2 = 0.2961): 1.073 ± 0.009 mPa·s | viscosity (313.15 K, 101 kPa, x2 = 0.3964): 0.995 ± 0.009 mPa·s | viscosity (313.15 K, 101 kPa, x2 = 0.4994): 0.917 ± 0.008 mPa·s | viscosity (313.15 K, 101 kPa, x2 = 0.6017): 0.862 ± 0.008 mPa·s | viscosity (313.15 K, 101 kPa, x2 = 0.6964): 0.809 ± 0.008 mPa·s | viscosity (313.15 K, 101 kPa, x2 = 0.7971): 0.77 ± 0.008 mPa·s | viscosity (313.15 K, 101 kPa, x2 = 0.8894): 0.737 ± 0.007 mPa·s | viscosity (318.15 K, 100 kPa, x1 = 0.0986): 0.685 ± 0.015 mPa·s | viscosity (318.15 K, 100 kPa, x1 = 0.2025): 0.718 ± 0.015 mPa·s | viscosity (318.15 K, 100 kPa, x1 = 0.2995): 0.757 ± 0.016 mPa·s | viscosity (318.15 K, 100 kPa, x1 = 0.3994): 0.798 ± 0.017 mPa·s | viscosity (318.15 K, 100 kPa, x1 = 0.5005): 0.852 ± 0.018 mPa·s | viscosity (318.15 K, 100 kPa, x1 = 0.5989): 0.916 ± 0.019 mPa·s | viscosity (318.15 K, 100 kPa, x1 = 0.6999): 0.999 ± 0.021 mPa·s | viscosity (318.15 K, 100 kPa, x1 = 0.7987): 1.101 ± 0.023 mPa·s | viscosity (318.15 K, 100 kPa, x1 = 0.9002): 1.23 ± 0.026 mPa·s | viscosity (323.15 K, 100 kPa, x1 = 0.0986): 0.647 ± 0.014 mPa·s | viscosity (323.15 K, 100 kPa, x1 = 0.2025): 0.678 ± 0.014 mPa·s | viscosity (323.15 K, 100 kPa, x1 = 0.2995): 0.713 ± 0.015 mPa·s | viscosity (323.15 K, 100 kPa, x1 = 0.3994): 0.752 ± 0.016 mPa·s | viscosity (323.15 K, 100 kPa, x1 = 0.5005): 0.802 ± 0.017 mPa·s | viscosity (323.15 K, 100 kPa, x1 = 0.5989): 0.859 ± 0.018 mPa·s | viscosity (323.15 K, 100 kPa, x1 = 0.6999): 0.936 ± 0.02 mPa·s | viscosity (323.15 K, 100 kPa, x1 = 0.7987): 1.028 ± 0.022 mPa·s | viscosity (323.15 K, 100 kPa, x1 = 0.9002): 1.147 ± 0.024 mPa·s
